Assay results as given in PubChem BioAssay (NCI).
“And” between values parts separate entries of the source, which are not always exact repeats. Identical values can stand only once.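 Cells were grown in 96-well plates and exposed to each compound for 48 hours at five concentrations; endpoints were interpolated linearly between bracketing concentrations, or set to the highest concentration if not reached. Here, GI50 denotes the concentration required for 50% inhibition of growth. Definition used: TGI = concentration required for complete inhibition of growth.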

Legend:
Assay in all cases: NCI-60 cell line screen, 48 h
HOP-62 NSCLC = system: HOP-62 NSCLC
DU-145 prostate = system: DU-145 prostate
SNB-19 CNS = system: SNB-19 CNS
SK-OV-3 ovarian = system: SK-OV-3 ovarian
HT29 colon = system: HT29 colon
COLO 205 colon = system: COLO 205 colon
A549 NSCLC = system: A549 NSCLC
HCT-116 colon = system: HCT-116 colon
ACHN renal = system: ACHN renal
CAKI-1 renal = system: CAKI-1 renal

Structure (SMILES): CCCCC[C@H]1C/C=C2/C(=O)C=C[C@@H]2C/C=C\CCCC(=O)O1
- GI50 (HOP-62 NSCLC): 0.129 µM
- TGI (HOP-62 NSCLC): 0.341 µM
- GI50 (DU-145 prostate): 0.169 µM
- TGI (DU-145 prostate): 1.94 µM
- GI50 (SNB-19 CNS): 0.479 µM
- TGI (SNB-19 CNS): 7.45 µM
- GI50 (SK-OV-3 ovarian): 0.364 µM
- TGI (SK-OV-3 ovarian): 6.11 µM
- GI50 (HT29 colon): 0.128 µM
- TGI (HT29 colon): 0.278 µM
- GI50 (COLO 205 colon): 0.113 µM
- TGI (COLO 205 colon): 0.256 µM
- GI50 (A549 NSCLC): 0.115 µM
- TGI (A549 NSCLC): 0.313 µM
- GI50 (HCT-116 colon): 0.0905 µM
- TGI (HCT-116 colon): 0.232 µM
- GI50 (ACHN renal): 0.0987 µM
- TGI (ACHN renal): 0.202 µM

Structure (SMILES): CN1C2C=CC(=O)C1C(C#N)C2 (stereo not drawn)
- TGI (HOP-62 NSCLC): > 100 µM
- TGI (DU-145 prostate): > 100 µM
- TGI (SNB-19 CNS): > 100 µM
- TGI (SK-OV-3 ovarian): > 100 µM
- GI50 (HT29 colon): 31.8 µM and 90.5 µM
- TGI (HT29 colon): > 100 µM
- TGI (A549 NSCLC): > 100 µM
- TGI (HCT-116 colon): 54.9 µM and > 100 µM
- TGI (ACHN renal): > 100 µM

Structure (SMILES): COc1cc(N)c(Cl)cc1C(=O)N[C@@H]1CCN(CCCOc2ccc(F)cc2)C[C@@H]1OC
- GI50 (DU-145 prostate): > 100 µM
- TGI (DU-145 prostate): > 100 µM
- GI50 (SNB-19 CNS): > 100 µM
- TGI (SNB-19 CNS): > 100 µM
- GI50 (SK-OV-3 ovarian): > 100 µM
- TGI (SK-OV-3 ovarian): > 100 µM
- GI50 (HT29 colon): 20.5 µM
- TGI (HT29 colon): > 100 µM
- GI50 (CAKI-1 renal): > 100 µM
- TGI (CAKI-1 renal): > 100 µM
- GI50 (COLO 205 colon): 54.8 µM
- TGI (COLO 205 colon): > 100 µM
- GI50 (A549 NSCLC): > 100 µM
- TGI (A549 NSCLC): > 100 µM
- GI50 (HCT-116 colon): 41.8 µM
- TGI (HCT-116 colon): > 100 µM
- GI50 (ACHN renal): > 100 µM
- TGI (ACHN renal): > 100 µM

Structure (SMILES): Cc1cc(O)c2c(c1)OC1(C)CCC3C(C)(C)CCCC34COC2C14 (stereo not drawn)
- TGI (HOP-62 NSCLC): 28.5 µM
- TGI (SNB-19 CNS): 32.7 µM
- TGI (CAKI-1 renal): 32.9 µM
- TGI (COLO 205 colon): 29.9 µM
- TGI (A549 NSCLC): 28.6 µM
- TGI (HCT-116 colon): 27.3 µM
- TGI (ACHN renal): 25.8 µM

Structure (SMILES): O=C(O)C1CC2C=CCC(C2)C1 (stereo not drawn)
- TGI (HOP-62 NSCLC): > 100 µM
- TGI (SNB-19 CNS): > 100 µM
- TGI (SK-OV-3 ovarian): > 100 µM
- TGI (HT29 colon): > 100 µM
- TGI (CAKI-1 renal): > 100 µM
- TGI (COLO 205 colon): > 100 µM
- TGI (A549 NSCLC): > 100 µM
- TGI (HCT-116 colon): > 100 µM
- TGI (ACHN renal): > 100 µM

Structure (SMILES): CC(=O)c1nc(-c2ccc(C[C@@H](CNC(=O)CN(C)C)NC(=O)c3ccc(OC(C)C)c(Cl)c3)cc2)cn1C
- GI50 (HOP-62 NSCLC): 0.0614 µM
- TGI (HOP-62 NSCLC): 16.9 µM
- GI50 (DU-145 prostate): 0.032 µM
- TGI (DU-145 prostate): 11.4 µM
- GI50 (SNB-19 CNS): 0.0439 µM
- TGI (SNB-19 CNS): 17.7 µM
- GI50 (SK-OV-3 ovarian): 0.0346 µM
- TGI (SK-OV-3 ovarian): 16.1 µM
- GI50 (HT29 colon): 0.024 µM
- TGI (HT29 colon): 12.5 µM
- GI50 (COLO 205 colon): 0.0292 µM
- TGI (COLO 205 colon): 3.84 µM
- GI50 (A549 NSCLC): 0.0518 µM
- TGI (A549 NSCLC): 19.1 µM
- GI50 (HCT-116 colon): 0.0393 µM
- TGI (HCT-116 colon): 13.1 µM
- GI50 (ACHN renal): 1.01 µM
- TGI (ACHN renal): 20.2 µM

Structure (SMILES): COC(=O)CCC(NC(=S)N/N=C(\C)c1cccs1)C(=O)OC (stereo not drawn)
- TGI (HOP-62 NSCLC): > 100 µM
- TGI (SNB-19 CNS): > 100 µM
- TGI (SK-OV-3 ovarian): > 100 µM
- TGI (HT29 colon): > 100 µM
- TGI (COLO 205 colon): > 100 µM
- TGI (A549 NSCLC): > 100 µM
- TGI (HCT-116 colon): > 100 µM
- TGI (ACHN renal): > 100 µM

Structure (SMILES): CCOc1ccc2cc(-c3nn(CC4CCN(C)CC4)c4ncnc(N)c34)ccc2c1
- GI50 (DU-145 prostate): 28.4 µM
- TGI (DU-145 prostate): > 100 µM
- GI50 (SNB-19 CNS): 15.6 µM
- TGI (SNB-19 CNS): 45.9 µM
- GI50 (SK-OV-3 ovarian): 11.2 µM
- TGI (SK-OV-3 ovarian): 36.1 µM
- GI50 (HT29 colon): 7.01 µM
- TGI (HT29 colon): 27.3 µM
- GI50 (CAKI-1 renal): 11.1 µM
- TGI (CAKI-1 renal): 25.8 µM
- GI50 (COLO 205 colon): 11.9 µM
- TGI (COLO 205 colon): 26.7 µM
- GI50 (A549 NSCLC): 17.9 µM
- TGI (A549 NSCLC): 40.2 µM
- GI50 (HCT-116 colon): 12.1 µM
- TGI (HCT-116 colon): 28.1 µM
- GI50 (ACHN renal): 14.7 µM
- TGI (ACHN renal): 33 µM

Structure (SMILES): COC(=O)C1=C(O)c2cc(OC)c(OC)c(OC)c2C(c2ccc3c(c2)OCO3)[C@@H]1C(=O)OC (stereo partly drawn)
- TGI (HOP-62 NSCLC): > 100 µM
- TGI (SK-OV-3 ovarian): 8.76 µM
- TGI (HT29 colon): 12.7 µM
- TGI (CAKI-1 renal): > 100 µM
- TGI (COLO 205 colon): 6.37 µM
- TGI (A549 NSCLC): > 100 µM
- TGI (HCT-116 colon): > 100 µM
- TGI (ACHN renal): > 100 µM
